Source: patent US10005735B2, “Inhibitors of RPN11” (California Institute of Technology, priority 2015, dated 2018)

Experiments:
[1] = target: T1, Rpn11 (Homo sapiens (Human), UniProt O00487); assay: Rpn11 activity assay (fluorescence polarization, Ub4-pepOG cleavage by 26S proteasome); assay type: biochemical; conditions: for Rpn11 assay activity (in words): screening, compared with 8TQ
Description: Candidate compounds according to embodiments of the present invention were synthesized as described herein. […] In brief, this Rpn11 bioassay employs a fluorescent polarization readout based on the ability of the 26S proteasome to cleave the protein substrate including four tandem ubiquitin proteins fused to a peptide having a unique cysteine labeled with a fluorophore. Cleavage of this substrate by Rpn11 at the junction between the fourth ubiquitin and the peptide, releases the low molecular weight fluorescent peptide. Accordingly, inhibition of fluorescence correlates with inhibition of Rpn11. Inhibition is reported as the half maximal inhibitory concentration (IC50) for the candidate compound.
Rpn11 Activity Assay. […] In brief, in order to measure the Rpn11 activity, a synthetic peptide substrate, termed Ub4-pepOG, was engineered. […] Peptide substrate Ub4-pepOG consists of only 30 amino acids and therefore the decrease of polarization is mainly from deubiquitination but not the proteolysis of the peptide. Fluorescence polarization assay was performed in a low-volume 384 well solid black plate where the components are added in the follow sequence: 1) 5 μl compound in 3% DMSO or 3% DMSO control 2) 5 μl 26S proteasome (Enzo Life Sciences Inc, NY). […] Fluorescence polarization is measured using a PHERAstar (BMG labtech, Ortenberg, Germany) plate reader with excitation of 480 nm and emission of 520 nm filter set. […] Rpn11 activity was normalized to DMSO control and fitted using does-response curve.

[2] = target: Csn5 (Homo sapiens (Human), UniProt Q92905); assay: Csn5 activity assay (fluorescence polarization, SCF^skp2-Nedd8OG, COP9 Signalosome Complex); assay type: biochemical; conditions: Table 2
Procedure: Csn5 Activity Assay. […] In brief, a fluorescent substrate termed SCF^skp2-Nedd8OG was produced to measure CSN5 activity in vitro. This assay measures the decrease in fluorescence polarization due to the decrease in apparent molecular weight of Oregon Green (OG) fluorophore (from the ˜175 kDa substrate to ˜9 kDa Nedd8OG) as a result of Csn5-mediated cleavage of the isopeptide bond that links Nedd8OG to SCF^Skp2. The assay was performed in a low-volume 384 well solid black plate comprising equal volumes of compound, substrate (SCF^skp2-Need8OG) and enzyme (purified COP9 Signalosome Complex, CSN). Fluorescence polarization was recorded using the same setting as for the Rpn11 activity assay.

[3] = target: AMSH (Homo sapiens (Human), UniProt O95630); assay: AMSH activity assay (DiUb^K63TAMRA cleavage, fluorescence); assay type: biochemical; conditions: Table 2
Chain of AMSH (O95630 whole entry): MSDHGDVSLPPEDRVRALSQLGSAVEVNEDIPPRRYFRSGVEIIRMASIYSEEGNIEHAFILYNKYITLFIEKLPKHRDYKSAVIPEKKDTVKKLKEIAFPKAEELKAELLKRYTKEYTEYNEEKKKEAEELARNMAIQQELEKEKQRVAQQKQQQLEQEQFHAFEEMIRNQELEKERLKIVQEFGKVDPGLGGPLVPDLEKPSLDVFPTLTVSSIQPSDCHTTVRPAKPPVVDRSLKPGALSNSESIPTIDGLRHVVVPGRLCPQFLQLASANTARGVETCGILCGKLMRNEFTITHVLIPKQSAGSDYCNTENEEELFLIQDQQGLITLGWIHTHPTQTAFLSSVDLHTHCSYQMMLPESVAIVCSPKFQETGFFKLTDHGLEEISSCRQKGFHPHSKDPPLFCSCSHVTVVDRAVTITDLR
Description: AMSH Activity Assay. AMSH is known to selectively cleave ubiquitin chains in which the ubiquitins are joined via K63 of the proximal ubiquitin linked by an isopeptide bond to the carboxy terminus of the distal ubiquitin. […] In brief, DiUb^K63TAMRA was labeled with quench pairs TAMRA/QXL.

[4] = system: Ub^G76V-GFP; assay: Reporter degradation assay in Hela cells expressing Ub^G76V-GFP; assay type: cell-based; conditions: Homo sapiens, after MG132 removal, cycloheximide chase
Procedure: Characterization of the Compound Activity in Cells. […] After 4 hours, MG132 was removed and a cycloheximide (CHX) chase was initiated +/− different concentrations of test compound and the rate of reporter degradation was evaluated by monitoring GFP fluorescence by high throughput microscopy. The rate of fluorescence decrease was normalized to DMSO control and analyzed using does-response equation.

[5] = target: T1, Rpn11; assay: Rpn11 activity assay (fluorescence polarization, Ub4-pepOG cleavage by 26S proteasome); assay type: biochemical; conditions: does not inhibit Csn5 or AMSH with the same potency as Rpn11
[6] = Table 2, 1 mM DTT in assay reduces disulfides to monomeric active species
[7] = Table 1, metal binding pharmacophore fragments

T1 sequence (O00487 whole entry, looked up, the tested form may be a part): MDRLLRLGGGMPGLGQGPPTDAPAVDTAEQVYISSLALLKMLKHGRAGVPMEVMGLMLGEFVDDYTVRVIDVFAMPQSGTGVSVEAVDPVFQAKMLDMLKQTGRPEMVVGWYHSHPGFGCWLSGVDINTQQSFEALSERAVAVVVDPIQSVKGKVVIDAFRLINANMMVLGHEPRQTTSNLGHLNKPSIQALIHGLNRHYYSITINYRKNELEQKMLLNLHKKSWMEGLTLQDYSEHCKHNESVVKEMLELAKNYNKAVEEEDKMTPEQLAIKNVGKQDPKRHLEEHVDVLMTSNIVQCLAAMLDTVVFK

SMILES	IC50 [1, 6] [µM]	IC50 [2] [µM]	IC50 [3] [µM]	IC50 [4] [µM]	specificity for Rpn11 versus Csn5 and/or AMSH (in words) [5]	IC50 [1, 7] [µM]	Rpn11 assay activity (in words) [1]
O=C(NCc1ccco1)c1cnc2c(SSc3cccc4cc(C(=O)NCc5ccco5)cnc34)cccc2c1 [Compound 7, 8,8′-Disulfanediylbis(N-(furan-2-ylmethyl)quinoline-3-carboxamide)]	0.9	0.2	0.9	–	–	–	–
O=C(NCCc1nccs1)c1cnc2c(SSc3cccc4cc(C(=O)NCCc5nccs5)cnc34)cccc2c1 [Compound 12, 8,8′-Disulfanediylbis(N-(2-(thiazol-2-yl)ethyl)quinoline-3-carboxamide)]	–	30	–	0.57	specific inhibitors of Rpn11	–	–
CNC(=O)c1cnc2c(SSc3cccc4cc(C(=O)NC)cnc34)cccc2c1 [Compound 2, 8,8′-Disulfanediylbis(N-methylquinoline-3-carboxamide)]	–	68	4.8	–	–	–	–
Cc1cccc2cccnc12 [reference compound]	–	–	–	–	–	> 100	–
O=C(NCc1ccc(F)cc1)c1cnc2c(SSc3cccc4cc(C(=O)NCc5ccc(F)cc5)cnc34)cccc2c1 [Compound 17, 8,8′-Disulfanediylbis(N-(4-fluorobenzyl)quinoline-3-carboxamide)]	–	18	0.85	> 10	specific inhibitors of Rpn11	–	–
O=C(NCCc1ccco1)c1cnc2c(SSc3cccc4cc(C(=O)NCCc5ccco5)cnc34)cccc2c1 [Compound 10, 8,8′-Disulfanediylbis(N-(2-(furan-2-yl)ethyl)quinoline-3-carboxamide)]	–	6.9	1.7	1.4	–	–	–
O=C(NCCc1ccco1)c1ccnc2c(SSc3cccc4c(C(=O)NCCc5ccco5)ccnc34)cccc12 [Compound 26, 8,8′-disulfanediylbis(N-(2-(furan-2-yl)ethyl)quinoline-4-carboxamide)]	1	8	2.9	1.6	specific inhibitors of Rpn11	–	–
O=C(NCc1ccc(N2CCOCC2)cc1)c1cnc2c(SSc3cccc4cc(C(=O)NCc5ccc(N6CCOCC6)cc5)cnc34)cccc2c1 [Compound 21, 8,8′-Disulfanediylbis(N-(4-morpholinobenzyl)quinoline-3-carboxamide)]	0.8	–	–	> 10	–	–	–
O=C(NCCc1cccs1)c1cnc2c(SSc3cccc4cc(C(=O)NCCc5cccs5)cnc34)cccc2c1 [Compound 11, 8,8′-Disulfanediylbis(N-(2-(thiophen-2-yl)ethyl)quinoline-3-carboxamide)]	0.3	4	1.3	–	specific inhibitors of Rpn11	–	–
CSc1cccc2cccnc12 [reference compound]	–	–	–	–	–	> 100	–
O=C(NCC1CCCO1)c1cnc2c(SSc3cccc4cc(C(=O)NCC5CCCO5)cnc34)cccc2c1 (stereo not shown) [Compound 6, 8,8′-Disulfanediylbis(N-((tetrahydrofuran-2-yl)methyl)quinoline-3-carboxamide)]	4.6	41.3	6.8	–	–	–	–
COc1ccc(CNC(=O)c2cnc3c(SSc4cccc5cc(C(=O)NCc6ccc(OC)cc6)cnc45)cccc3c2)cc1 [Compound 19, 8,8′-Disulfanediylbis(N-(4-methoxybenzyl)quinoline-3-carboxamide)]	–	0.5	0.6	> 10	specific inhibitors of Rpn11	–	–
Sc1cccc2cccnc12 [Compound 8TQ, 8-thioquinoline, reference compound]	–	–	–	–	–	2.8 ± 0.35	highly potent fragment
O=C(NCc1ccc2c(c1)OCO2)c1cnc2c(SSc3cccc4cc(C(=O)NCc5ccc6c(c5)OCO6)cnc34)cccc2c1 [Compound 20, 8,8′-Disulfanediylbis(N-(benzo[d][1,3]dioxol-5-ylmethyl)quinoline-3-carboxamide)]	0.9	7	–	> 10	–	–	–
O=C(NCCN1CCOCC1)c1cnc2c(SSc3cccc4cc(C(=O)NCCN5CCOCC5)cnc34)cccc2c1 [Compound 22, 8,8′-Disulfanediylbis(N-(2-morpholinoethyl)quinoline-3-carboxamide)]	6.4	99	25.4	> 10	–	–	–
Sc1ccnc2cccnc12 [Compound 8e, 1,5-Naphthyridine-4-thiol]	–	–	–	–	–	15	–

SMILES	IC50 [1, 6] [µM]	IC50 [2] [µM]	IC50 [3] [µM]	IC50 [4] [µM]	specificity for Rpn11 versus Csn5 and/or AMSH (in words) [5]	IC50 [1, 7] [µM]	Rpn11 assay activity (in words) [1]
Cc1ccc2cccc(S)c2n1 [Compound 9c, 2-Methylquinoline-8-thiol]	–	–	–	–	–	–	less active than 8TQ
O=C(NCc1cccs1)c1cnc2c(SSc3cccc4cc(C(=O)NCc5cccs5)cnc34)cccc2c1 [Compound 8, 8,8′-Disulfanediylbis(N-(thiophen-2-ylmethyl)quinoline-3-carboxamide)]	0.8	16	1.3	–	–	–	–
O=C(O)c1ccc2cccc(SSc3cccc4ccc(C(=O)O)nc34)c2n1 [Compound 14b, 8,8′-Disulfanediylbis(quinoline-2-carboxylic acid)]	–	–	–	–	–	–	less active than 8TQ
O=C(NCc1ccccc1)c1ccc2cccc(SSc3cccc4ccc(C(=O)NCc5ccccc5)nc34)c2n1 [8,8′-Disulfanediylbis(N-benzylquinoline-2-carboxamide)]	–	–	–	–	–	–	less active than 8TQ
COC(=O)c1ccc2cccc(SSc3cccc4ccc(C(=O)OC)nc34)c2n1 [Dimethyl 8,8′-disulfanediylbis(quinoline-2-carboxylate)]	–	–	–	–	–	–	less active than 8TQ
O=C(NCc1ccccc1)c1cnc2c(SSc3cccc4cc(C(=O)NCc5ccccc5)cnc34)cccc2c1 [Compound 16, 8,8′-Disulfanediylbis(N-benzylquinoline-3-carboxamide)]	1.1	11	15	> 10	–	–	–
O=C(CCCC[C@@H]1SC[C@@H]2NC(=O)N[C@@H]21)NCCOCCOCCOCCNC(=O)c1cnc2c(S)cccc2c1 [Compound 32]	0.4	13.8	0.4	4.1	–	–	–
O=C(NCc1cccnc1)c1cnc2c(SSc3cccc4cc(C(=O)NCc5cccnc5)cnc34)cccc2c1 [Compound 14, 8,8′-Disulfanediylbis(N-(pyridin-3-ylmethyl)quinoline-3-carboxamide)]	3.1	128	3.52	> 10	–	–	–
Nc1cccc2cccnc12 [reference compound]	–	–	–	–	–	> 100	–
Oc1cccc2cccnc12 [reference compound]	–	–	–	–	–	> 100	–
Sc1cccc2ccccc12 [reference compound]	–	–	–	–	–	> 100	–
O=C(NCc1cccs1)c1ccc2cccc(SSc3cccc4ccc(C(=O)NCc5cccs5)nc34)c2n1 [8,8′-Disulfanediylbis(N-(thiophen-2-ylmethyl)quinoline-2-carboxamide)]	–	–	–	–	–	–	less active than 8TQ
O=C(Nc1nccs1)c1cnc2c(SSc3cccc4cc(C(=O)Nc5nccs5)cnc34)cccc2c1 [Compound 5, 8,8′-Disulfanediylbis(N-(thiazol-2-yl)quinoline-3-carboxamide)]	–	32	3.3	–	specific inhibitors of Rpn11	–	–
Sc1cccc2ncccc12 [reference compound]	–	–	–	–	–	> 100	–
O=C(NCc1ccccn1)c1cnc2c(SSc3cccc4cc(C(=O)NCc5ccccn5)cnc34)cccc2c1 [Compound 13, 8,8′-Disulfanediylbis(N-(pyridin-2-ylmethyl)quinoline-3-carboxamide)]	3.9	56.7	16.7	> 10	–	–	–
O=C(NCc1nccs1)c1cnc2c(SSc3cccc4cc(C(=O)NCc5nccs5)cnc34)cccc2c1 [Compound 9, 8,8′-Disulfanediylbis(N-(thiazol-2-ylmethyl)quinoline-3-carboxamide)]	–	23	7.8	–	specific inhibitors of Rpn11	–	–
